# Laboratory results taken from patent publication US20130197085A1, “AGENT AND METHOD FOR STABILIZING MEMBRANE PROTEIN” (priority 2007, published 2013).
# Legend:
# D482G BSEP [1] = molecular target: T1, D482G BSEP (Homo sapiens, UniProt O95342, D482G/L339V); test: Transcellular transport assay of [^3H] TC across MDCKII monolayer; assay type: cell-based; conditions: 24 hours
# T1 construct: expressed in transfected cells; host or cells: MDCKII cells infected with recombinant adenovirus
# Procedure: (§1) MDCKII cells were dispersed on a Transwell membrane insert (pore size: […]; Falcon) of a 24-well plate, resulting in a density of 1.5×10^5 cells/insert. Two days after the culture, the confluent cells were infected with recombinant adenoviruses having the cDNAs of wild-type, E297G and D482G BSEPs, and GFP, at 50 MOI. […] After completion of the treatment for 24 hours, a transcellular transport assay was carried out (see Mita et al., Am J Physiol Gastrointest Liver Physiol 290: G550-G556, 2006).
# (§2) The apparent efflux clearance across the apical membrane (PSapical) was calculated by dividing a steady rate of the transcellular transport of [^3H] TC for 2 hours by the intracellular concentration of the [^3H] TC at the termination of the experiment (2 hours later).
# wild-type BSEP [2] = molecular target: T2, wild-type BSEP (Homo sapiens, UniProt O95342, L339V); test: as above; assay type: cell-based; conditions: 24 hours
# T2 construct: expressed in transfected cells; host or cells: MDCKII cells infected with recombinant adenovirus
# Procedure: as §1, §2
# E297G BSEP [3] = molecular target: T3, E297G BSEP (Homo sapiens, UniProt O95342, E297G/L339V); test: as above; assay type: cell-based; conditions: 24 hours
# T3 construct: expressed in transfected cells; host or cells: MDCKII cells infected with recombinant adenovirus
# Procedure: as §1, §2
# D482G BSEP [4] = molecular target: T1, D482G BSEP; test: Cell surface biotinylation method, expression on the surface of MDCKII cells; assay type: cell-based; conditions: 1 mM, 24 hours
# Procedure: (§3) MDCKII cells were dispersed on a 6-well plate, resulting in a density of 2.5×10^5 cells/well. After completion of the culture for 24 hours, the confluent cells were infected with recombinant adenoviruses having the cDNAs of wild-type, E297G and D482G BSEPs, and GFP, at 200 MOI. After completion of the infection, the cells were cultured for 24 hours. […] After completion of the treatment for 24 hours, the cells were biotinylated (see Hayashi et al., Hepatology, 41: 916-924, 2005).
# [5] = test system: intrinsic dipeptidyl peptidase IV (DPPIV); test: as above; assay type: cell-based; conditions: 1 mM, 24 hours
# Procedure: as §3
# wild-type BSEP [6] = molecular target: T2, wild-type BSEP; test: as above; assay type: cell-based; conditions: 1 mM, 24 hours
# Procedure: as §3
# E297G BSEP [7] = molecular target: T3, E297G BSEP; test: as above; assay type: cell-based; conditions: 1 mM, 24 hours
# Procedure: as §3
# CFTRΔF508 = CFTRΔF508 (Homo sapiens, UniProt P13569, DEL508-508); conditions: Non-Patent Document 2; cited from earlier work
# extrinsic P-gp = test: Cell surface biotinylation method, expression on the surface of MDCKII cells; assay type: cell-based; conditions: 1 mM, 24 hours
# D482G BSEP [8] = molecular target: T1, D482G BSEP; test: Treatment with actinomycin D and cycloheximide, upregulation of mature BSEP by 4PBA in MDCKII cells; assay type: cell-based; conditions: 1 mM 4PBA, 6 hours
# Procedure: (§4) MDCKII cells were dispersed on a 6-well plate, resulting in a density of 2.5×10^5 cells/well. After completion of the culture for 24 hours, the confluent cells were infected with recombinant adenoviruses having the cDNAs of wild-type, E297G and D482G BSEPs, and GFP, at 200 MOI. After completion of the infection, the cells were cultured for 36 hours. Thereafter, in order to inhibit mRNA synthesis, the cells were treated in the presence or absence of 5 μg/ml actinomycin D (Sigma). Otherwise, in order to inhibit protein synthesis, the cells were treated in the presence or absence of 20 μg/ml cycloheximide (Sigma). After completion of the treatment for 2 hours, in the presence or absence of actinomycin D or in the presence or absence of cycloheximide, 4PBA was added to the cells to a concentration of 1 mM. At the time point of 6 hours (E297G and D482G BSEPs) or 8 hours (wild-type BSEP) after the 4PBA treatment, a crude membrane fraction was prepared. The obtained fraction was separated by 6% SDS-PAGE, and Western blotting was then carried out.
# wild-type BSEP [9] = molecular target: T2, wild-type BSEP; test: as above; assay type: cell-based; conditions: 1 mM 4PBA, 8 hours
# Procedure: as §4
# E297G BSEP [10] = molecular target: T3, E297G BSEP; test: as above; assay type: cell-based; conditions: 1 mM 4PBA, 6 hours
# Procedure: as §4
# [11] = test system: intrinsic dipeptidyl peptidase IV (DPPIV); test: Decomposition rate of cell surface-expressed protein (biotin-labeling) in MDCKII cells; assay type: cell-based; conditions: 1 mM 4PBA
# Procedure: as §3
# The remaining biotinylated protein was isolated, and it was then subjected to 6% SDS-PAGE, followed by Western blotting.
# [12] = 1 mM, PSapical minus PSapical of GFP cells
# T3 sequence (O95342 whole entry E297G/L339V): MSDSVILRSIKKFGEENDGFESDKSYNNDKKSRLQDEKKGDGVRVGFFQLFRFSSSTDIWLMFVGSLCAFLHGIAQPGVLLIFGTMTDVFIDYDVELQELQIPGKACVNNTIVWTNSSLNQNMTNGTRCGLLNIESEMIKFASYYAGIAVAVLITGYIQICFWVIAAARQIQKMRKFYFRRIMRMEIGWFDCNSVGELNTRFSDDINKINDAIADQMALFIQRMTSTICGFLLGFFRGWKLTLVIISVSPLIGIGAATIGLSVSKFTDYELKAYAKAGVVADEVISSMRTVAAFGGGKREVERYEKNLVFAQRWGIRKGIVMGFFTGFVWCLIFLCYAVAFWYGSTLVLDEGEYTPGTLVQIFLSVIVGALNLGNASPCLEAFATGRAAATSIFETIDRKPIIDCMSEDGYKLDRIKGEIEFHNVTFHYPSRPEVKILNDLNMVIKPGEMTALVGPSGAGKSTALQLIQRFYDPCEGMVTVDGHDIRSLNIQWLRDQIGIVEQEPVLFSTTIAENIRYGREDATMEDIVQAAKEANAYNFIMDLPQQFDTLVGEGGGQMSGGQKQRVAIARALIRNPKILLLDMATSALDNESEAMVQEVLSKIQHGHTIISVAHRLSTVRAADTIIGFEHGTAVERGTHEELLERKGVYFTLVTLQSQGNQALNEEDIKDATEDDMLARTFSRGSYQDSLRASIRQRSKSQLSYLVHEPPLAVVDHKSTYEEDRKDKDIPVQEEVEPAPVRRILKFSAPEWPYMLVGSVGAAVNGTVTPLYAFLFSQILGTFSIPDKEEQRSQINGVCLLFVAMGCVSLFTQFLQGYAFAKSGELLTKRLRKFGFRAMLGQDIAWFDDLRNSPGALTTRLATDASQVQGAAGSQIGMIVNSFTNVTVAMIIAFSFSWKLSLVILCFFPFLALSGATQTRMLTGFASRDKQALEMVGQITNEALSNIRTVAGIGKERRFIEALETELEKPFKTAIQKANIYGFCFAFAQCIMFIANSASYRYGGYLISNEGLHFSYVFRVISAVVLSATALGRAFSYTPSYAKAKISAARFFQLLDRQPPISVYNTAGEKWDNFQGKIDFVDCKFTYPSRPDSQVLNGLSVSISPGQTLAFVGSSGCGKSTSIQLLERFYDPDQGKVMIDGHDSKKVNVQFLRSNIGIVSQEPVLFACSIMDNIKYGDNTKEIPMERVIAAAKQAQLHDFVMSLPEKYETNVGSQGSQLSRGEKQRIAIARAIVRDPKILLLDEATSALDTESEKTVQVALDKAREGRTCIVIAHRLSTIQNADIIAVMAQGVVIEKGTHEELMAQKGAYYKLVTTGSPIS
# T1 sequence (O95342 whole entry L339V/D482G): as the sequence (O95342 whole entry E297G/L339V) above, with G297E, D482G counted along it
# T2 sequence (O95342 whole entry L339V): as the sequence (O95342 whole entry E297G/L339V) above, with G297E counted along it
# Chain of CFTRΔF508 (P13569 with tags, fused parts or gaps DEL508-508): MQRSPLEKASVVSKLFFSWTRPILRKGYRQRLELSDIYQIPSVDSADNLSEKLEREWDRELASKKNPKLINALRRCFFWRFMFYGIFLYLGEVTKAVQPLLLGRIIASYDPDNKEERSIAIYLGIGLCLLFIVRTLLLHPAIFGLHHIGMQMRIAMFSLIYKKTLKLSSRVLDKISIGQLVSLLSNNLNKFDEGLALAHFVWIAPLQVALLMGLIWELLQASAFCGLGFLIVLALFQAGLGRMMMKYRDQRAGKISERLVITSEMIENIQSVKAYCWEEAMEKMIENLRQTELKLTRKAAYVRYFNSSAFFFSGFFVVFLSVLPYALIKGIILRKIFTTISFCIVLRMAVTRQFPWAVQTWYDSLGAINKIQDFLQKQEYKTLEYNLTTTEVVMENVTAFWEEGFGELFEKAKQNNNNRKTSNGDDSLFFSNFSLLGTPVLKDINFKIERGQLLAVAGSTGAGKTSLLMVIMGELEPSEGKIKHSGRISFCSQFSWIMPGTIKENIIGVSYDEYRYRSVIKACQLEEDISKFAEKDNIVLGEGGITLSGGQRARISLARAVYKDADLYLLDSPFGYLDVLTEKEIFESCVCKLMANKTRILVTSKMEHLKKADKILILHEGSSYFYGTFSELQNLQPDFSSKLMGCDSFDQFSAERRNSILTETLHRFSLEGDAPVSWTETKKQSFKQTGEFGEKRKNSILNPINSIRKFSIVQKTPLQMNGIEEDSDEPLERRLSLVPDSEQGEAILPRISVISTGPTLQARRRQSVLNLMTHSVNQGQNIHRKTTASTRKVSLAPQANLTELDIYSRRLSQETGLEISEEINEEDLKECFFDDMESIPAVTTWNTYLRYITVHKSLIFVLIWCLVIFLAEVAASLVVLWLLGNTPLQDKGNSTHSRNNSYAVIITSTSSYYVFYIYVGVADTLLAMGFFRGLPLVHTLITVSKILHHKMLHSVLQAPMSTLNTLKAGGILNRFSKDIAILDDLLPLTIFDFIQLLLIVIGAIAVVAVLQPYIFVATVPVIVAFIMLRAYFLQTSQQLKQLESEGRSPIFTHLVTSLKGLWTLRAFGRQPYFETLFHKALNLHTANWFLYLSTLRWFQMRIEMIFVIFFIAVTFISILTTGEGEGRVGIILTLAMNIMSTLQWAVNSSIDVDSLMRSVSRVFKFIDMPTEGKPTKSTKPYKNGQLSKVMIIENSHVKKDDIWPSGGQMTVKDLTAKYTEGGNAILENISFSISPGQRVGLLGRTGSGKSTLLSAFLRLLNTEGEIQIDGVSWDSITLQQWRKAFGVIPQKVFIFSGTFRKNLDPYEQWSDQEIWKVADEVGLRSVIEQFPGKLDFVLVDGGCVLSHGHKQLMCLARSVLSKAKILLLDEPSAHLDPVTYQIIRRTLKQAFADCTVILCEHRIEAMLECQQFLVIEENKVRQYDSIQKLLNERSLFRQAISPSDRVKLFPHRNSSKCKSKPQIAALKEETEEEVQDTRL
structure (smiles),measurement,setting,value
"O=C(O)CCCc1ccccc1 [4PBA, 4-phenylbutyric acid]",efflux of [^3H] TC from the apical side to the base side,"D482G BSEP [1]; 1 mM, MDCKII monolayer",did not influence
same,"efflux of [^3H] TC from the base side to the apical side, increase","D482G BSEP [1]; 1 mM, MDCKII monolayer",3 times
same,"BSEP-dependent PSapical value (PSapical, BSEP), increase",D482G BSEP [1]; [12],2.8 times
same,PSapical value,D482G BSEP [1]; 4PBA treatment 1 mM,increased
same,efflux of [^3H] TC from the apical side to the base side,"wild-type BSEP [2]; 1 mM, MDCKII monolayer",did not influence
same,"efflux of [^3H] TC from the base side to the apical side, increase","wild-type BSEP [2]; 1 mM, MDCKII monolayer",1.5 times
same,"BSEP-dependent PSapical value (PSapical, BSEP), increase",wild-type BSEP [2]; [12],1.7 times
same,PSapical value,wild-type BSEP [2]; 4PBA treatment 1 mM,increased
same,efflux of [^3H] TC from the apical side to the base side,"E297G BSEP [3]; 1 mM, MDCKII monolayer",did not influence
same,"efflux of [^3H] TC from the base side to the apical side, increase","E297G BSEP [3]; 1 mM, MDCKII monolayer",2.5 times
same,"BSEP-dependent PSapical value (PSapical, BSEP), increase",E297G BSEP [3]; [12],3.0 times
same,PSapical value,E297G BSEP [3]; 4PBA treatment 1 mM,increased
same,"expression level on the cell surface, increase",D482G BSEP [4],2.6 times
same,expression of intrinsic DPPIV,[5],not influenced
same,"expression level on the cell surface, increase",wild-type BSEP [6],1.8 times
same,"expression level on the cell surface, increase",E297G BSEP [7],3.1 times
same,expression of CFTRΔF508 on the cell membrane,CFTRΔF508,recovers its expression on the cell membrane
same,expression of extrinsic P-gp,extrinsic P-gp,not influenced
same,effect of transcription inhibition by actinomycin D on the increase in expression of mature BSEP due to 4PBA,D482G BSEP [8]; actinomycin D 5 μg/ml,did not affect
same,effect of translation inhibition by cycloheximide on the increase in expression of mature BSEP due to 4PBA,D482G BSEP [8]; cycloheximide 20 μg/ml,did not affect
same,effect of transcription inhibition by actinomycin D on the increase in expression of mature BSEP due to 4PBA,wild-type BSEP [9]; actinomycin D 5 μg/ml,did not affect
same,effect of translation inhibition by cycloheximide on the increase in expression of mature BSEP due to 4PBA,wild-type BSEP [9]; cycloheximide 20 μg/ml,did not affect
same,effect of transcription inhibition by actinomycin D on the increase in expression of mature BSEP due to 4PBA,E297G BSEP [10]; actinomycin D 5 μg/ml,did not affect
same,effect of translation inhibition by cycloheximide on the increase in expression of mature BSEP due to 4PBA,E297G BSEP [10]; cycloheximide 20 μg/ml,did not affect
same,decomposition of intrinsic DPPIV on the cell surface,[11],not influenced
